According to ChEMBL document CHEMBL3865816, “Design, synthesis and biological evaluation of novel azaspiro analogs of linezolid as antibacterial and antitubercular agents” (Eur J Med Chem, 2016):
Values after ≈ are worked out from the molar mass of the structure shown.

Columns and labels:
Type in all cases: functional
Pseudomonas aeruginosa [1] = test: Antibacterial activity against Pseudomonas aeruginosa NCIM 2036 measured after 8 hrs by spectrophotometric method; conditions: NCIM 2036, 8 h
Staphylococcus aureus [2] = test: Antibacterial activity against Staphylococcus aureus NCIM 2079 measured after 12 hrs by spectrophotometric method; conditions: NCIM 2079, 12 h
Escherichia coli [3] = test: Antibacterial activity against Escherichia coli NCIM 2688 measured after 8 hrs by spectrophotometric method; conditions: NCIM 2688, 8 h
Bacillus subtilis [4] = test: Antibacterial activity against Bacillus subtilis NCIM 2010 measured after 12 hrs by spectrophotometric method; conditions: NCIM 2010, 12 h
[5] = tested on: Mycobacterium tuberculosis; test: Antitubercular activity against dormant stage Mycobacterium tuberculosis H37Ra measured after 12 days by XTT assay; conditions: 288 h
Escherichia coli [6] = test: Antibacterial activity against Escherichia coli NCIM 2688 at 30 ug/ml measured after 8 hrs by spectrophotometric method; conditions: NCIM 2688, 8 h
Escherichia coli [7] = test: Antibacterial activity against Escherichia coli NCIM 2688 at 10 ug/ml measured after 8 hrs by spectrophotometric method; conditions: NCIM 2688, 8 h
Escherichia coli [8] = test: Antibacterial activity against Escherichia coli NCIM 2688 at 3 ug/ml measured after 8 hrs by spectrophotometric method; conditions: NCIM 2688, 8 h
Pseudomonas aeruginosa [9] = test: Antibacterial activity against Pseudomonas aeruginosa NCIM 2036 at 30 ug/ml measured after 8 hrs by spectrophotometric method; conditions: NCIM 2036, 8 h
Pseudomonas aeruginosa [10] = test: Antibacterial activity against Pseudomonas aeruginosa NCIM 2036 at 10 ug/ml measured after 8 hrs by spectrophotometric method; conditions: NCIM 2036, 8 h
Pseudomonas aeruginosa [11] = test: Antibacterial activity against Pseudomonas aeruginosa NCIM 2036 at 3 ug/ml measured after 8 hrs by spectrophotometric method; conditions: NCIM 2036, 8 h
Staphylococcus aureus [12] = test: Antibacterial activity against Staphylococcus aureus NCIM 2079 at 30 ug/ml measured after 12 hrs by spectrophotometric method; conditions: NCIM 2079, 12 h
Staphylococcus aureus [13] = test: Antibacterial activity against Staphylococcus aureus NCIM 2079 at 10 ug/ml measured after 12 hrs by spectrophotometric method; conditions: NCIM 2079, 12 h
Staphylococcus aureus [14] = test: Antibacterial activity against Staphylococcus aureus NCIM 2079 at 3 ug/ml measured after 12 hrs by spectrophotometric method; conditions: NCIM 2079, 12 h
Bacillus subtilis [15] = test: Antibacterial activity against Bacillus subtilis NCIM 2010 at 30 ug/ml measured after 12 hrs by spectrophotometric method; conditions: NCIM 2010, 12 h
Bacillus subtilis [16] = test: Antibacterial activity against Bacillus subtilis NCIM 2010 at 10 ug/ml measured after 12 hrs by spectrophotometric method; conditions: NCIM 2010, 12 h
Bacillus subtilis [17] = test: Antibacterial activity against Bacillus subtilis NCIM 2010 at 3 ug/ml measured after 12 hrs by spectrophotometric method; conditions: NCIM 2010, 12 h
[18] = tested on: Mycobacterium tuberculosis; test: Antitubercular activity against dormant stage Mycobacterium tuberculosis H37Ra at 30 ug/ml measured after 12 days by XTT assay; conditions: 288 h
[19] = tested on: Mycobacterium tuberculosis; test: Antitubercular activity against dormant stage Mycobacterium tuberculosis H37Ra at 10 ug/ml measured after 12 days by XTT assay; conditions: 288 h
[20] = tested on: Mycobacterium tuberculosis; test: Antitubercular activity against dormant stage Mycobacterium tuberculosis H37Ra at 3 ug/ml measured after 12 days by XTT assay; conditions: 288 h

| SMILES | IC50 (Pseudomonas aeruginosa [1]) | MIC (Pseudomonas aeruginosa [1]) | IC50 (Staphylococcus aureus [2]) | MIC (Staphylococcus aureus [2]) | IC50 (Escherichia coli [3]) | MIC (Escherichia coli [3]) | IC50 (Bacillus subtilis [4]) | MIC (Bacillus subtilis [4]) | IC50 [5] | MIC [5] | inhibition at 30 µg/mL (Escherichia coli [6]) | inhibition at 10 µg/mL (Escherichia coli [7]) | inhibition at 3 µg/mL (Escherichia coli [8]) | inhibition at 30 µg/mL (Pseudomonas aeruginosa [9]) | inhibition at 10 µg/mL (Pseudomonas aeruginosa [10]) | inhibition at 3 µg/mL (Pseudomonas aeruginosa [11]) | inhibition at 30 µg/mL (Staphylococcus aureus [12]) | inhibition at 10 µg/mL (Staphylococcus aureus [13]) | inhibition at 3 µg/mL (Staphylococcus aureus [14]) | inhibition at 30 µg/mL (Bacillus subtilis [15]) | also measured |
| --- | --- | --- | --- | --- | --- | --- | --- | --- | --- | --- | --- | --- | --- | --- | --- | --- | --- | --- | --- | --- | --- |
| O=C1OC2(CCN(Cc3ccccc3)C2)CN1c1ccc(N2CCOCC2)c(F)c1 (stereo not given) | > 100 µg/mL | > 100 µg/mL | > 100 µg/mL | > 100 µg/mL | > 100 µg/mL | > 100 µg/mL | > 100 µg/mL | > 100 µg/mL | > 100 µg/mL | > 100 µg/mL | 23.9% | 23.7% | 31.2% | 50.1% | 32.7% | 35.9% | 23.1% | 22.9% | 30.5% | 14.7% | inhibition at 10 µg/mL (Bacillus subtilis [16]): 17.4%; inhibition at 3 µg/mL (Bacillus subtilis [17]): 24.5%; inhibition at 30 µg/mL [18]: 20.8%; inhibition at 10 µg/mL [19]: 7.06%; inhibition at 3 µg/mL [20]: 18.1% |
| O=C1O[C@@H](CNC(=S)Nc2ccc(Cl)cc2)CN1c1ccc(N2CC3(COC3)C2)c(F)c1 | > 100 µg/mL | > 100 µg/mL | > 100 µg/mL | > 100 µg/mL | > 100 µg/mL | > 100 µg/mL | > 100 µg/mL | > 100 µg/mL | > 100 µg/mL | > 100 µg/mL | 69.9% | 42.5% | 47.7% | 71.2% | 49.4% | 34% | 47.5% | 37.9% | 18.8% | 62.6% | inhibition at 10 µg/mL (Bacillus subtilis [16]): 45.6%; inhibition at 3 µg/mL (Bacillus subtilis [17]): 24.1%; inhibition at 30 µg/mL [18]: -0.48%; inhibition at 10 µg/mL [19]: 15.7%; inhibition at 3 µg/mL [20]: 14.8% |
| N#Cc1ccc(NC(=S)NC[C@H]2CN(c3ccc(N4CC5(COC5)C4)c(F)c3)C(=O)O2)cc1 | > 100 µg/mL | > 100 µg/mL | 1.03 µg/mL (≈ 2.2 µM) | 11.2 µg/mL (≈ 24 µM) | 1 µg/mL (≈ 2.14 µM) | 9.54 µg/mL (≈ 20.4 µM) | 0.86 µg/mL (≈ 1.84 µM) | 3.87 µg/mL (≈ 8.28 µM) | > 100 µg/mL | > 100 µg/mL | 95.7% | 93.2% | 78.2% | 50% | 46.6% | 22.1% | 94.3% | 91.6% | 75.6% | 98% | inhibition at 10 µg/mL (Bacillus subtilis [16]): 97.6%; inhibition at 3 µg/mL (Bacillus subtilis [17]): 81.3%; inhibition at 30 µg/mL [18]: 34.7%; inhibition at 10 µg/mL [19]: 58.1%; inhibition at 3 µg/mL [20]: 34.5% |
| OC1(CNc2ccc(N3CCOCC3)c(F)c2)CCN(Cc2ccccc2)C1 (stereo not given) | > 100 µg/mL | > 100 µg/mL | > 100 µg/mL | > 100 µg/mL | > 100 µg/mL | > 100 µg/mL | > 100 µg/mL | > 100 µg/mL | > 100 µg/mL | > 100 µg/mL | 53.9% | 49.6% | 45% | 63.7% | 37.1% | 14.4% | 53.2% | 48.9% | 44.3% | 52.2% | inhibition at 10 µg/mL (Bacillus subtilis [16]): 47.1%; inhibition at 3 µg/mL (Bacillus subtilis [17]): 44.7%; inhibition at 30 µg/mL [18]: 5.62%; inhibition at 10 µg/mL [19]: 6.11%; inhibition at 3 µg/mL [20]: 8% |
| CC1(C)[C@@]2(C)CC[C@]1(C(=O)NC[C@H]1CN(c3ccc(N4CC5(COC5)C4)c(F)c3)C(=O)O1)OC2=O | > 100 µg/mL | > 100 µg/mL | > 100 µg/mL | > 100 µg/mL | > 100 µg/mL | > 100 µg/mL | > 100 µg/mL | > 100 µg/mL | > 100 µg/mL | > 100 µg/mL | 39.5% | 28.8% | 20% | 56.4% | 55% | 50.6% | 70.2% | 51.1% | 50.6% | 69.8% | inhibition at 10 µg/mL (Bacillus subtilis [16]): 53.8%; inhibition at 3 µg/mL (Bacillus subtilis [17]): 40.5%; inhibition at 30 µg/mL [18]: 15.6%; inhibition at 10 µg/mL [19]: -38.5%; inhibition at 3 µg/mL [20]: 9.81% |
| COc1ccc(NC(=S)NC[C@H]2CN(c3ccc(N4CC5(COC5)C4)c(F)c3)C(=O)O2)cc1 | > 100 µg/mL | > 100 µg/mL | 0.74 to 100 µg/mL (≈ 1.57 to 212 µM) | 16.1 to 100 µg/mL (≈ 34.1 to 212 µM) | 1.1 µg/mL (≈ 2.33 µM) | 10.7 µg/mL (≈ 22.6 µM) | 1.1 µg/mL (≈ 2.33 µM) | 8.78 µg/mL (≈ 18.6 µM) | > 100 µg/mL | > 100 µg/mL | 98% | 89.4% | 82.2% | 58.5% | 30.1% | 17.7% | 98.3% | 88.7% | 81.4% | 100% | inhibition at 10 µg/mL (Bacillus subtilis [16]): 95.3%; inhibition at 3 µg/mL (Bacillus subtilis [17]): 77.9%; inhibition at 30 µg/mL [18]: 23.3%; inhibition at 10 µg/mL [19]: -3.34%; inhibition at 3 µg/mL [20]: 14.3% |
| COCC(=O)NC[C@H]1CN(c2ccc(N3CC4(COC4)C3)c(F)c2)C(=O)O1 | > 100 µg/mL | > 100 µg/mL | > 100 µg/mL | > 100 µg/mL | > 100 µg/mL | > 100 µg/mL | > 100 µg/mL | > 100 µg/mL | > 100 µg/mL | > 100 µg/mL | 66.6% | 65.4% | 61.5% | 63.7% | 37.1% | 14.4% | 98.8% | 92.2% | 72.3% | 95.2% | inhibition at 10 µg/mL (Bacillus subtilis [16]): 77.7%; inhibition at 3 µg/mL (Bacillus subtilis [17]): 51.2%; inhibition at 30 µg/mL [18]: 50.1%; inhibition at 10 µg/mL [19]: -13.7%; inhibition at 3 µg/mL [20]: -22.9% |
